Data on 35 compounds can be found in patent US11512053B2, “Arginine methyltransferase inhibitors and uses thereof” (priority 2013, dated 2022).

Each structure is given as a SMILES string. Counter-ions that a name gives are not always drawn. Like-named read-outs stand apart in the source and are kept apart here.

Assay [1] addresses full-length human PRMT1 isoform 1 (GST-tagged) (Homo sapiens, UniProt Q99873). The experiment in a line: PRMT1 Biochemical Assay (3H-SAM Flashplate, peptide substrate). In a few lines: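 GST-tagged full-length PRMT1 from baculovirus-infected cells, preincubated 30 min at room temperature with compound in 20 mM Bicine pH 7.6, TCEP, BSG, Tween 20. Reaction started with 3H-SAM plus biotinylated peptide, stopped with 300 uM unlabelled SAM. Streptavidin Flashplate capture and scintillation counting; % inhibition curve-fitted for IC50.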

Assay [2] has as its target full-length human PRMT6 (Flag- and His-tagged) (Homo sapiens, UniProt Q96LA8). The experiment in a line: PRMT6 Biochemical Assay (3H-SAM Flashplate, peptide substrate). Particulars: read-out: Biochemical IC50 PRMT6. The essentials:
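Flag/His-tagged full-length human PRMT6 (1 nM) preincubated with compound 30 min at room temperature in Bicine pH 7.6 buffer, then reaction started with 3H-SAM 200 nM plus unlabeled SAM 250 nM and biotinylated H4 36-50 peptide (K44me1) 75 nM; 2% DMSO. Quenched with 400 uM cold SAM; labeled peptide captured on streptavidin Flashplate, counted; % inhibition vs DMSO and 1 mM SAH controls fit by 3- or 4-parameter curve.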

The mark [3] stands for this setting: single experiment or average of multiple experiments.

Chain of full-length human PRMT6 (Flag- and His-tagged) (Q96LA8 with tags, fused parts or gaps): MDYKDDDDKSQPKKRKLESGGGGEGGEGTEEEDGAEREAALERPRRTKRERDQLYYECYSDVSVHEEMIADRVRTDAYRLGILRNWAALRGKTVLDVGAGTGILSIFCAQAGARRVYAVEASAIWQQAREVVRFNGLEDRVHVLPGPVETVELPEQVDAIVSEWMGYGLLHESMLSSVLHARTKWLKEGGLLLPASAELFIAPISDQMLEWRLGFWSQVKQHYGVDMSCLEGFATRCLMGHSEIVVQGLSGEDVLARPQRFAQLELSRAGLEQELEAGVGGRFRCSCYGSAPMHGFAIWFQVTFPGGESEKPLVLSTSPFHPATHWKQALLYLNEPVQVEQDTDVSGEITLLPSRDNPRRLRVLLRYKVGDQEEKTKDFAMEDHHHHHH
Chain of full-length human PRMT1 isoform 1 (GST-tagged) (Q99873 with tags, fused parts or gaps): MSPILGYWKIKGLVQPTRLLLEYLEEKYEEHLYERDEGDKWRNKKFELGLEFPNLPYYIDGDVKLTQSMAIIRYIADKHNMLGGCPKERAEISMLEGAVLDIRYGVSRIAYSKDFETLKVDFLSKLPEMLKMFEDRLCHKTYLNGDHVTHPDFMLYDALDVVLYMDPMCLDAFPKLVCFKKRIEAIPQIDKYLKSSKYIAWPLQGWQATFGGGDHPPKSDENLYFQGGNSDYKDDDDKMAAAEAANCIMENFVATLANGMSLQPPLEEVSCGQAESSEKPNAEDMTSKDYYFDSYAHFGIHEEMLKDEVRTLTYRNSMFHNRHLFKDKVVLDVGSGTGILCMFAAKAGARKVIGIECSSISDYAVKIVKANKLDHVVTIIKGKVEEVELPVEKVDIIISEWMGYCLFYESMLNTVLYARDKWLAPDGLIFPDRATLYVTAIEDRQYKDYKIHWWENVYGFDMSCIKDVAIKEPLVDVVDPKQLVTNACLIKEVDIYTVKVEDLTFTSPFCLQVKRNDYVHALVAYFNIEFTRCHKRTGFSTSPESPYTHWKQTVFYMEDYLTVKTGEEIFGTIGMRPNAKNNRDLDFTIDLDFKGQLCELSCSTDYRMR

In general, IC50 refers to the point on the concentration scale where inhibition reaches its midpoint. As for `CCOC[C@H]1CC(c2n[nH]cc2CN(C)CCNC)C[C@H](COCC)C1` (some centres unmarked) [Compound 188], the half-maximal inhibitory concentration (IC50) in assay [1] is 101 to 1000 nM; in assay [1] (setting [3]) it was 275 nM; in assay [2], 1010 to 3000 nM; in assay [2] (setting [3]) it was 1230 nM.
The like results for `CCOC[C@@H]1C[C@H](COCC)C[C@H](c2n[nH]cc2CN(C)CCNC)C1` [Compound 189] were, in that order, 101 to 1000 nM, 108 nM, 1010 to 3000 nM and 1470 nM.
The like results for `CNCCN(C)Cc1c[nH]nc1C1CCC(=O)N(CCCOC)C1` (centres unmarked) [Compound 190] were, in that order, 101 to 1000 nM, 124 nM, 101 to 1000 nM and 156 nM.
The like results for `CNCCN(C)Cc1c[nH]nc1C1CCC(=O)N(Cc2ccc(C(F)(F)F)cc2)C1` (centres unmarked) [Compound 191] were, in that order, less than 100 nM, 50.4 nM, 101 to 1000 nM and 107 nM.
Take `CNCCN(C)Cc1c[nH]nc1[C@H]1CC[C@H](N(CC2CCOCC2)C(=O)CC(C)C)CC1` [Compound 192]: the IC50 in assay [1] was 101 to 1000 nM; in assay [1] (setting [3]), 216 nM; in assay [2] it was 101 to 1000 nM; in assay [2] (setting [3]) it was 173 nM.
Turning to `CNCCN(C)Cc1c[nH]nc1[C@H]1CC[C@H](N(CC(C)C)C(=O)CC2CCOCC2)CC1` [Compound 193], the IC50 in assay [1] was less than 100 nM; in assay [1] (setting [3]), 28.4 nM; in assay [2], less than 100 nM; in assay [2] (setting [3]), 95.1 nM.
Consider `CNCCN(C)Cc1c[nH]nc1C1CCC(=O)CC1` [Compound 194], for which the IC50 in assay [1] was less than 100 nM; in assay [1] (setting [3]), 14.5 nM; in assay [2], less than 100 nM; in assay [2] (setting [3]) it was 22.7 nM.
Turning to `CCN(C(=O)CC1CCOCC1)[C@H]1CC[C@H](c2n[nH]cc2CN(C)CCNC)CC1` [Compound 195], the IC50 in assay [1] is less than 100 nM; in assay [1] (setting [3]), 14.4 nM; in assay [2] it was less than 100 nM; in assay [2] (setting [3]) it was 51.7 nM.
In the case of `CCN(C(=O)CC1CCOCC1)[C@H]1CC[C@@H](c2n[nH]cc2CN(C)CCNC)CC1` [Compound 196], the half-maximal inhibitory concentration (IC50) was 101 to 1000 nM in assay [1], 149 nM in assay [1] (setting [3]), 101 to 1000 nM in assay [2] and 111 nM in assay [2] (setting [3]).
Turning to `CNCCN(C)Cc1c[nH]nc1[C@H]1CC[C@]2(CCN(Cc3cc(F)cc(F)c3)C2=O)CC1` [Compound 197], the half-inhibitory concentration (IC50) in assay [1] is less than 100 nM; in assay [1] (setting [3]) it was 8.27 nM; in assay [2], less than 100 nM; in assay [2] (setting [3]) it was 10.7 nM.
`CNCCN(C)Cc1c[nH]nc1[C@H]1CC[C@]2(CCCO2)OC1` [Compound 198]: the IC50 is 3010 to 10000 nM in assay [1], no less than 10000 nM in assay [1] (setting [3]), 3010 to 10000 nM in assay [2] and 8540 nM in assay [2] (setting [3]).
Take `CNCCN(C)Cc1c[nH]nc1C1CCC2(CCCC2)OC1` (centres unmarked) [Compound 199]: the IC50 in assay [1] is less than 100 nM; in assay [1] (setting [3]) it was 16.8 nM; in assay [2], less than 100 nM; in assay [2] (setting [3]) it was 36.5 nM.
For `CNCCN(C)Cc1n[nH]cc1[C@H]1CC[C@@]2(CC1)CC(C)(C)CO2` [Compound 200, Methyl[2-(methylamino)ethyl]([4-[(5S,8S)-3,3-dimethyl-1-oxaspiro[4.5]decan-8-yl]-1H-pyrazol-3-yl]methyl)amine trifluoroacetic acid salt], the IC50 in assay [1] and in assay [2] was less than 100 nM in each case.
As to `CNCCN(C)Cc1n[nH]cc1[C@H]1CC[C@]2(CC1)CC(C)(C)CO2` [Compound 201], the 50% inhibitory concentration (IC50) in assay [1] was less than 100 nM; in assay [2], 101 to 1000 nM.
For the compound `CCOCC1CC(c2n[nH]cc2CN(C)CCNC)CCC1(C)C` (centres unmarked) [Compound 202], the IC50 is less than 100 nM in assay [1], 12.7 nM in assay [1] (setting [3]), less than 100 nM in assay [2] and 66.4 nM in assay [2] (setting [3]).
With `CNCCN(C)Cc1n[nH]cc1[C@H]1CC[C@H](C(=O)NCCC(C)C)CC1` [Compound 203], the IC50 in assay [1] was less than 100 nM; in assay [1] (setting [3]), 28.4 nM; in assay [2], less than 100 nM; in assay [2] (setting [3]) it was 36.8 nM.
As to `CNCCN(C)Cc1c[nH]nc1[C@H]1CC[C@@H](C(=O)NCCC(C)C)CC1` [Compound 204], the IC50 is less than 100 nM in assay [1], 18.4 nM in assay [1] (setting [3]), less than 100 nM in assay [2] and 63.6 nM in assay [2] (setting [3]).
For the compound `CNCCN(C)Cc1cn(C)nc1[C@H]1CC[C@@]2(CC1)CC(C)(C)CO2` [Compound 205, Methyl([1-methyl-3-[(5S,8S)-3,3-dimethyl-1-oxaspiro[4.5]decan-8-yl]-1H-pyrazol-4-yl]methyl)[2-(methylamino)ethyl]amine hydrochloride], the concentration for half-maximal inhibition (IC50) in assay [1] is less than 100 nM; in assay [1] (setting [3]), 12.8 nM; in assay [2], less than 100 nM; in assay [2] (setting [3]), 71.5 nM.
Turning to `CNCCN(C)Cc1cn(C)nc1[C@H]1CC[C@]2(CC1)CC(C)(C)CO2` [Compound 206, Methyl([1-methyl-3-[(5R,8S)-3,3-dimethyl-1-oxaspiro[4.5]decan-8-yl]-1H-pyrazol-4-yl]methyl)[2-(methylamino)ethyl]amine hydrochloride], the 50% inhibitory concentration (IC50) in assay [1] was less than 100 nM; in assay [1] (setting [3]) it was 19.5 nM; in assay [2] it was 101 to 1000 nM; in assay [2] (setting [3]), 207 nM.
For the compound `CN(CCN)Cc1c[nH]nc1[C@H]1CC[C@@]2(CC1)CC(C)(C)CO2` [Compound 207], the IC50 in assay [1] and in assay [2] was less than 100 nM throughout.
As to `CN(CCN)Cc1c[nH]nc1[C@H]1CC[C@]2(CC1)CC(C)(C)CO2` [Compound 208], the IC50 in assay [1] is less than 100 nM; in assay [1] (setting [3]) it was 6.94 nM; in assay [2] it was less than 100 nM; in assay [2] (setting [3]) it was 45.3 nM.
Regarding `CNCCN(C)Cc1c[nH]nc1[C@H]1CC[C@H](C(=O)N(C)CCC(C)C)CC1` [Compound 209], the IC50 in assay [1] is less than 100 nM; in assay [1] (setting [3]) it was 27.8 nM; in assay [2], less than 100 nM; in assay [2] (setting [3]), 52.1 nM.
As for `CNCCN(C)Cc1c[nH]nc1[C@H]1CC[C@@H](C(=O)N(C)CCC(C)C)CC1` [Compound 210], the IC50 was less than 100 nM in assay [1], 13.1 nM in assay [1] (setting [3]), less than 100 nM in assay [2] and 31.7 nM in assay [2] (setting [3]).
As for `CNCCN(C)Cc1c[nH]nc1[C@H]1CC[C@H](C(=O)NCCOc2ccccc2)CC1` [Compound 211], the half-inhibitory concentration (IC50) in assay [1] was less than 100 nM; in assay [1] (setting [3]), 8.28 nM; in assay [2], less than 100 nM; in assay [2] (setting [3]), 11.4 nM.
In the case of `CNCCN(C)Cc1c[nH]nc1[C@H]1CC[C@@H](C(=O)NCCOc2ccccc2)CC1` [Compound 212], the IC50 in assay [1] is less than 100 nM; in assay [1] (setting [3]) it was 5.57 nM; in assay [2], less than 100 nM; in assay [2] (setting [3]), 13.6 nM.
Consider `CNCCN(C)Cc1c[nH]nc1[C@H]1CC[C@H](C(=O)N(CCCOC)CCC(C)C)CC1` [Compound 213], for which the IC50 in assay [1] is less than 100 nM; in assay [1] (setting [3]) it was 53.9 nM; in assay [2] it was less than 100 nM; in assay [2] (setting [3]), 91.3 nM.
For the compound `CNCCN(C)Cc1c[nH]nc1[C@H]1CC[C@@H](C(=O)N(CCCOC)CCC(C)C)CC1` [Compound 214], the half-inhibitory concentration (IC50) was less than 100 nM in assay [1], 19.8 nM in assay [1] (setting [3]), less than 100 nM in assay [2] and 50.5 nM in assay [2] (setting [3]).
`CNCCN(C)Cc1c[nH]nc1[C@H]1CC[C@@H](C(=O)N(C)CC(C)C)CC1` [Compound 215]: the IC50 was less than 100 nM in assay [1], 14.1 nM in assay [1] (setting [3]), less than 100 nM in assay [2] and 30.6 nM in assay [2] (setting [3]).
Regarding `CNCCN(C)Cc1c[nH]nc1C1CCC(F)(F)CC1` [Compound 216], the concentration for half-maximal inhibition (IC50) in assay [1] is less than 100 nM; in assay [1] (setting [3]), 12.1 nM; in assay [2], less than 100 nM; in assay [2] (setting [3]), 20.5 nM.
As to `CNCCN(C)Cc1c[nH]nc1[C@H]1CC[C@@H](O)CC1` [Compound 217, 4-[4-([methyl[2-(methylamino)ethyl]amino]methyl)-1H-pyrazol-3-yl]cyclohexan-1-ol trifluoroacetate], the IC50 was less than 100 nM in assay [1], 30.2 nM in assay [1] (setting [3]), less than 100 nM in assay [2] and 34 nM in assay [2] (setting [3]).
As to `CNCCN(C)Cc1c[nH]nc1[C@H]1CC[C@@H](N(CCOc2ccccc2)C(=O)CCOC)CC1` [Compound 218], the IC50 in assay [1] is less than 100 nM; in assay [1] (setting [3]) it was 41.7 nM; in assay [2] it was less than 100 nM; in assay [2] (setting [3]), 30.3 nM.
For the compound `CNCCN(C)Cc1c[nH]nc1[C@H]1CC[C@H](N(CCOc2ccccc2)C(=O)CCOC)CC1` [Compound 219], the IC50 in assay [1] was less than 100 nM; in assay [1] (setting [3]), 8.96 nM; in assay [2] it was less than 100 nM; in assay [2] (setting [3]), 31.9 nM.
`CCC(=O)N(CCOc1ccccc1)[C@H]1CC[C@@H](c2n[nH]cc2CN(C)CCNC)CC1` [Compound 220]: the half-inhibitory concentration (IC50) is less than 100 nM in assay [1], 9.29 nM in assay [1] (setting [3]), less than 100 nM in assay [2] and 18.4 nM in assay [2] (setting [3]).
As for `CCC(=O)N(CCOc1ccccc1)[C@H]1CC[C@H](c2n[nH]cc2CN(C)CCNC)CC1` [Compound 221], the IC50 is less than 100 nM in assay [1], 6.44 nM in assay [1] (setting [3]), less than 100 nM in assay [2] and 19.2 nM in assay [2] (setting [3]).
With `CNCCN(C)Cc1c[nH]nc1[C@H]1CC[C@@H](N(CCOc2ccccc2)C(=O)CC(C)C)CC1` [Compound 222], the IC50 in assay [1] is less than 100 nM; in assay [1] (setting [3]), 43 nM; in assay [2] it was less than 100 nM; in assay [2] (setting [3]), 21.3 nM.
